In patent US20240368174A1, “Antiviral Heterocyclic Compounds” (Enanta Pharmaceuticals, Inc., priority 2023, published 2024):

Each molecule was assayed on HMPV clinical isolate A2 strain TN 94-49 (assay: HMPV antiviral assay, Method 2 (LLC-MK2 cells with CP-100-356, ATP-Lite)). Conditions: human metapneumovirus, 168 h; hMPV A2 TN/94-49, LLC-MK2 cells with 4 μM CP-100-356, 7 days, ATP-Lite.
Type: cell-based
Protocol: In vitro HMPV antiviral activity was evaluated using the clinical isolate A2 strain TN 94-49 (obtained from Dr. John Williams, Vanderbilt University, Tennessee) and LLC-MK2 cells (Millipore Sigma CB_85062804), an immortalized kidney epithelial cell line from Macaca mulatta. Compounds were resuspended in dimethyl sulfoxide (DMSO) at 10 mM, serially diluted and added to a 384-well source plate. Subsequently, the compounds were diluted and transferred onto 384-well assay plates using the Echo-650 automated liquid handling system (Beckman Coulter, Indiana). The test compounds were assessed in duplicate at a top concentration of 200 nM followed by 2.5-fold serial dilutions to give a total of 10 concentration points. DMSO control wells were also included on the assay plates and were either infected or not, acting as positive and negative controls. A2 TN 94-49 virus infections were performed in-suspension with LLC-MK2 cells. The cells were washed twice with PBS and removed from the cell-culture flask with 0.25% trypsin-EDTA (Thermo Fisher Scientific, MA). The trypsin-EDTA was inactivated by resuspending in 2% fetal bovine serum (FBS) and OptiMEM (ThermoFisher Scientific, MA) containing 1% antibiotic-antimycotic. Cells were pelleted by centrifuging for 5 minutes at 800 rpm, the supernatant was removed, and cells were re-suspended and washed in PBS plus 100 μg/mL CaCl2). This step was performed twice. Cells were then re-suspended in serum-free (SF)-OptiMEM containing 4 μg/mL TPCK-Trypsin (Sigma Aldrich, MO), 1% antibiotic-antimycotic (ThermoFisher Scientific, MA), 100 μg/mL CaCl2), and 4 μM of CP-100-356, a P-glycoprotein inhibitor. Cells were counted and seeded at a density of 5,000 cells/well, 12.5 μL/well. Virus infections were done at a multiplicity of infection (MOI) of 0.16 with 12.5 μL added per well. Virus infections were performed in infection media which contained SF-OptiMEM, 100 μg/mL CaCl2) and 1% antibiotic-antimycotic. HMPV viral stocks are suspended in infection media+5% glycerol, thus an equal volume of infection media+5% glycerol was added to uninfected wells to equalize the final % glycerol across all wells of the assay plate. The final concentration of TPCK-trypsin was 2 μg/mL. The final concentration of CP-100-356 was 2 μM. The assay plates were incubated at 37° C., 5% CO2 for 7 days. After 7 days incubation, 12.5 μL of ATP-Lite (PerkinElmer, MA) was added to each well and the raw luminescence values were determined using the Envision 2104 (Perkin Elmer, MA). The average of the raw luminescence values for the cells and virus only positive control wells was subtracted from all conditions tested and the percent cell health was determined by dividing these values by the average of the cells only negative control wells. EC50 values were then calculated by non-linear regression using a four-parameter curve logistic equation. The curve fit model employed was XLFit Dose Response One Site Model 200: y=(A+(B/(1+((x/C)^D)))), where A is the minimum y value, B is the maximum y value, C is the log EC50 value, and D is the slope factor.

Structure (SMILES)	EC50 [nM]
COc1cc(C(=O)NC[C@](O)(c2cc3c(c(-c4cc(C(F)(F)F)ncc4F)n2)OC[C@]3(C)C(N)=O)C2(F)CC2)cc2cn(C3(F)CC3)nc12 [Example 666]	< 200
COc1cc(C(=O)NC[C@](O)(c2cc3c(c(-c4ccnc(OCC(C)C)c4Cl)n2)OC[C@]3(C)C(N)=O)C2CC2)cc2cn(C3CC3)nc12 [Example 804]	> 200
COc1nccc(-c2nc([C@@](O)(CNC(=O)c3cc(OC)c4nc(C5CC5)oc4c3)C3(F)CC3)cc3c2OC[C@]3(C)C(N)=O)c1Cl [Example 645]	< 200
C[C@]1(C(N)=O)COc2c1cc([C@@](O)(CNC(=O)c1cc(Cl)c3nn(C4CC4)cc3c1)C1CC1)nc2-c1cc(C(F)(F)F)ncc1F [Example 660]	< 200
COc1cc(-c2nc([C@@](O)(CNC(=O)c3cc(OC)c4nn(C5CC5)cc4c3)C3CC3)cc3c2OC[C@]3(C)C(N)=O)ccn1 [Example 832]	> 200
COc1nccc(-c2nc([C@@](O)(CNC(=O)c3cc(OC)c4nn(C5CC5)cc4c3)C3CC3)cc3c2OC[C@]3(C)C(N)=O)c1Cl [Example 782]	< 200

Same assay, conditions: human metapneumovirus; hMPV A2 TN/94-49, LLC-MK2 cells with CP-100-356, Method 2

Structure (SMILES)	EC50 [nM]
COc1cc(C(=O)NC[C@@](O)(c2cnc(C3CC3)nc2)c2cc3c(c(-c4cc(Cl)c(F)cc4F)n2)OC[C@]3(C)C(N)=O)cc2cn(C3CC3)nc12 [Example 478]	< 200
COc1nccc(-c2nc([C@@](O)(CNC(=O)c3cc(OC4CC4)c4nn(C5(F)CC5)cc4c3)C(F)(F)F)cc3c2OC[C@]3(C)C(N)=O)c1Cl [Example 588]	< 200
COc1cc(C(=O)NC[C@@](O)(c2cnccn2)c2cc3c(c(-c4cc(Cl)c(F)cc4F)n2)OC[C@]3(C)C(N)=O)cc2cn(C3CC3)nc12 [Example 487]	< 200
COc1cc(-c2nc([C@@](O)(CNC(=O)c3cc(OC)c4nn(C5(F)CC5)cc4c3)c3ccccc3)cc3c2OC[C@]3(C)C(N)=O)c(F)cc1F [Example 364]	> 200
COc1cc(C(=O)NC[C@](O)(c2cc3c(c(-n4ccc5ccccc54)n2)OC[C@]3(C)C(N)=O)C(F)(F)F)cc2cn(C(F)F)nc12 [Example 449]	< 200
COc1cc(C(=O)NC[C@](O)(c2cc3c(c(-c4cc(Cl)c(F)cc4F)n2)OC[C@]3(C)C(N)=O)C2(C)CC2)cc2cn(C3CC3)nc12 [Example 516]	< 200
COc1cc(F)c(-c2nc([C@@](O)(CNC(=O)c3cc(OC)c4nn(C5(F)CC5)cc4c3)c3ccccc3)cc3c2OC[C@]3(C)C(N)=O)cc1F [Example 363]	> 200
COc1cc(C(=O)NC[C@@](O)(c2ccccc2)c2cc3c(c(-c4cc(Cl)c(F)cc4F)n2)OC[C@]3(C)C(N)=O)cc2oc(N)nc12 [Example 237]	< 200
COc1nccc(-c2nc([C@@](O)(CNC(=O)c3cc(OC4CC4)n4nc(C5CC5)cc4c3)C(F)(F)F)cc3c2OC[C@]3(C)C(N)=O)c1Cl [Example 607]	< 200
[2H]C([2H])([2H])NC(=O)[C@@]1(C)COc2c1cc([C@@](O)(CNC(=O)c1cc(OC)c3nn(C4(F)CC4)cc3c1)c1ccccc1)nc2-c1cc(Cl)c(F)cc1F [Example 109]	< 200
COc1nccc(-c2nc([C@@](O)(CNC(=O)c3cc(OC4CC4)c4nn(C5(F)CC5)cc4c3)C3CC3)cc3c2OC[C@]3(C)C(N)=O)c1Cl [Example 592]	< 200
COc1cc(C(=O)NC[C@](O)(c2cc3c(c(-c4cc(C(F)(F)F)c(F)cc4F)n2)OC[C@]3(C)C(N)=O)C(F)(F)F)cc2cn(C3CC3)nc12 [Example 395]	< 200
COc1cc(C(=O)NC[C@@](O)(c2ccccc2)c2cc3c(c(-c4cc(Cl)c(F)cc4F)n2)OC[C@]3(C)C(N)=O)cc2cc(Cl)nnc12 [Example 113]	< 200
COc1cc(C(=O)NC[C@@](O)(c2ccncc2)c2cc3c(c(-c4cc(Cl)c(F)cc4F)n2)OC[C@]3(C)C(N)=O)cc2cn(C3CC3)nc12 [Example 152]	< 200
COc1cc(C(=O)NC[C@@](O)(c2ccc(=O)[nH]c2)c2cc3c(c(-c4cc(Cl)c(F)cc4F)n2)OC[C@]3(C)C(N)=O)cc2cn(C3CC3)nc12 [Example 505]	> 200
